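Each compound was tested at five concentrations against cells in 96-well plates for 48 hours. GI50 is the concentration that inhibits growth by half.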 Calls of active or inactive are those of the source. Rule as the data show it: active = GI50 up to about 1.1 µM and inactive = higher. Where a SMILES comes first, the peptide text is derived from it. [ ]: non-standard residue; d: D form. The star is where a group is joined. ξ: configuration not given here. X4 = COc1ccc(C(N*)c2ccc(OC)cc2)cc1; NMeF = CN[C@@H](Cc1ccccc1)C(=O)O; NMeD = CN[C@@H](CC(=O)O)C(=O)O; NMeV = CN[C@H](C(=O)O)C(C)C; ξNMeV = CNC(C(=O)O)C(C)C; Boc = CC(C)(C)OC(=O)*; ξNMeA = CNC(C)C(=O)O; ξV = CC(C)C(N)C(=O)O
What was measured:
Assay in all cases: DTP human tumour cell line panel, 48 h
786-0 = test system: 786-0
A498 = test system: A498
A549 = test system: A549
ACHN = test system: ACHN
BT-549 = test system: BT-549
CAKI-1 = test system: CAKI-1
CCRF-CEM = test system: CCRF-CEM
COLO 205 = test system: COLO 205
DLD-1 = test system: DLD-1
DMS-114 = test system: DMS-114
DMS-273 = test system: DMS-273
DU-145 = test system: DU-145
EKVX = test system: EKVX
HCC 2998 = test system: HCC 2998
HCT-116 = test system: HCT-116
HCT-15 = test system: HCT-15
HL-60 = test system: HL-60
HOP-62 = test system: HOP-62
HOP-92 = test system: HOP-92
HT-29 = test system: HT-29
Hs-578T = test system: Hs-578T
IGROV-1 = test system: IGROV-1
K562 = test system: K562
KM-20L2 = test system: KM-20L2
KM12 = test system: KM12
LOX IMVI = test system: LOX IMVI
LXFL 529 = test system: LXFL 529
M14 = test system: M14
M19-MEL = test system: M19-MEL
MCF7 = test system: MCF7
MDA-MB-231 = test system: MDA-MB-231
MDA-MB-435 = test system: MDA-MB-435
MDA-N = test system: MDA-N
MOLT-4 = test system: MOLT-4
Malme-3M = test system: Malme-3M
NCI-H226 = test system: NCI-H226
NCI-H23 = test system: NCI-H23
NCI-H460 = test system: NCI-H460
NCI-H522 = test system: NCI-H522
NCI/ADR-RES = test system: NCI/ADR-RES
OVCAR-3 = test system: OVCAR-3
OVCAR-4 = test system: OVCAR-4
OVCAR-5 = test system: OVCAR-5
OVCAR-8 = test system: OVCAR-8
PC-3 = test system: PC-3
RPMI-8226 = test system: RPMI-8226
RXF 393 = test system: RXF 393
SF-268 = test system: SF-268
SF-295 = test system: SF-295
SF-539 = test system: SF-539
SK-MEL-28 = test system: SK-MEL-28
SK-MEL-2 = test system: SK-MEL-2
SK-MEL-5 = test system: SK-MEL-5
SK-OV-3 = test system: SK-OV-3
SN12C = test system: SN12C
SNB-19 = test system: SNB-19
SNB-75 = test system: SNB-75
SNB-78 = test system: SNB-78
SR = test system: SR
SW-620 = test system: SW-620
T47D = test system: T47D
TK-10 = test system: TK-10
U-251 = test system: U-251
UACC-257 = test system: UACC-257
UACC-62 = test system: UACC-62
UO-31 = test system: UO-31
XF498 = test system: XF498

COc1ccc(C(NC(=O)C[C@@H](C(=O)N(C)C(C)C(=O)O)N(C)C(=O)[C@@H]2CCCN2C(=O)[C@H](C(C)C)N(C)C(=O)C(C(C)C)N(C)C(=O)[C@H](Cc2ccccc2)N(C)C(=O)C(NC(=O)OC(C)(C)C)C(C)C)c2ccc(OC)cc2)cc1 (some centres not stated) (Boc-[ξV][NMeF][ξNMeV][NMeV]P[NMeD](X4)[ξNMeA]-OH)
GI50 (786-0): 21.3 µM (inactive)
GI50 (A498): > 37.5 µM (inactive)
GI50 (A549): > 37.5 µM (inactive)
GI50 (ACHN): 36.9 µM (inactive)
GI50 (BT-549): 6.73 µM (inactive)
GI50 (CAKI-1): 29.6 µM (inactive)
GI50 (CCRF-CEM): 7.43 µM (inactive)
GI50 (COLO 205): 20.4 µM (inactive)
GI50 (DLD-1): 18 µM (inactive)
GI50 (DMS-114): 16.5 µM (inactive)
GI50 (DMS-273): 17.2 µM (inactive)
GI50 (DU-145): 25.9 µM (inactive)
GI50 (EKVX): 25.6 µM (inactive)
GI50 (HCC 2998): 6.76 µM (inactive)
GI50 (HCT-116): 13.1 µM (inactive)
GI50 (HCT-15): 21.9 µM
GI50 (HL-60): 8 µM (inactive)
GI50 (HOP-62): 13.4 µM (inactive)
GI50 (HOP-92): 8.26 µM (inactive)
GI50 (HT-29): 16.2 µM (inactive)
GI50 (Hs-578T): 2.56 µM (inactive)
GI50 (IGROV-1): 8.43 µM (inactive)
GI50 (K562): 11 µM (inactive)
GI50 (KM-20L2): 19.9 µM (inactive)
GI50 (KM12): 7.18 µM (inactive)
GI50 (LOX IMVI): 7.66 µM (inactive)
GI50 (LXFL 529): 14.7 µM (inactive)
GI50 (M14): 11.8 µM (inactive)
GI50 (M19-MEL): 16.9 µM (inactive)
GI50 (MCF7): 16.1 µM (inactive)
GI50 (MDA-MB-231): 11.3 µM (inactive)
GI50 (MDA-MB-435): 9.1 µM (inactive)
GI50 (MDA-N): 12.5 µM (inactive)
GI50 (MOLT-4): 8.39 µM (inactive)
GI50 (Malme-3M): 14.4 µM (inactive)
GI50 (NCI-H226): 7.64 µM (inactive)
GI50 (NCI-H23): 10.4 µM (inactive)
GI50 (NCI-H460): 24.5 µM (inactive)
GI50 (NCI-H522): 11.5 µM (inactive)
GI50 (NCI/ADR-RES): > 37.5 µM (inactive)
GI50 (OVCAR-3): 13.3 µM (inactive)
GI50 (OVCAR-4): 17.5 µM (inactive)
GI50 (OVCAR-5): > 37.5 µM (inactive)
GI50 (OVCAR-8): 22.1 µM (inactive)
GI50 (PC-3): 13.7 µM (inactive)
GI50 (RPMI-8226): 8.24 µM (inactive)
GI50 (RXF 393): 7.5 µM (inactive)
GI50 (SF-268): 7.53 µM (inactive)
GI50 (SF-295): 18.9 µM (inactive)
GI50 (SF-539): 7.94 µM (inactive)
GI50 (SK-MEL-28): 7.62 µM (inactive)
GI50 (SK-MEL-2): 7.74 µM (inactive)
GI50 (SK-MEL-5): 6.52 µM (inactive)
GI50 (SK-OV-3): > 37.5 µM (inactive)
GI50 (SN12C): 25.5 µM (inactive)
GI50 (SNB-19): 22.4 µM (inactive)
GI50 (SNB-75): 4.24 µM (inactive)
GI50 (SNB-78): 15.8 µM (inactive)
GI50 (SR): 15.6 µM (inactive)
GI50 (SW-620): 8.18 µM (inactive)
GI50 (T47D): 11.9 µM (inactive)
GI50 (TK-10): 23.7 µM (inactive)
GI50 (U-251): 9.75 µM (inactive)
GI50 (UACC-257): 9.75 µM (inactive)
GI50 (UACC-62): 6.73 µM (inactive)
GI50 (UO-31): 24.8 µM (inactive)
GI50 (XF498): 15.8 µM (inactive)

From ChEMBL document CHEMBL1201862, “PubChem BioAssay data set” (2004)
